According to patent US10280159B2 (AbbVie Deutschland GmbH & Co. KG, priority 2015, dated 2019):
Counter-ions that a name gives are not always drawn.

Key:
Type in all cases: cell-based
human S1PR5 = target: T1, human S1PR5 (Homo sapiens, UniProt Q9H228); test: Intracellular Ca2+ release (FLIPR) agonist potency, S1P5; settings: recombinant CHO-K1 cells expressing human S1PR5, aequorin, Gq/i5; Calcium 5 FLIPR; read-out: S1P5 EC50 range
T1 construct: host or cells: CHO-K1
Experimental: (§1) Agonistic activity was measured using the method described below.
(§2) Intracellular Ca^2+ Release
(§3) Agonist potency and intrinsic activity was assessed by measurement of intracellular Ca^2+ release. Recombinant CHO-K1 cells (Euroscreen, Brussels, Belgium) expressing human S1PR5, S1PR1, S1PR3 or S1PR4 receptors, aequorin, and GTP binding protein Gq/i5 were cultured using a medium containing nutrient mixture F-12 Ham (Sigma-Aldrich) with 10% FBS, and 100 μg/mL gentamicin and equilibrated at 5% CO2.
(§4) Phospho-fingolimod was used as positive control. Antagonists were pre-incubated for 10 min with cells before addition of the agonist (phospho-fingolimod at EC80). Measurements were performed using a fluorometric imaging plate reader FLIPR®tetra (Molecular Devices). Agonist at the human S1P receptors were characterized by deducing EC50 (potency) values from a nonlinear fit to the measured fluorescence raw data after normalization to the reference agonist (phospho-fingolimod) curve.

human S1PR1 = target: T2, human S1PR1 (Homo sapiens, UniProt P21453); test: Intracellular Ca2+ release (FLIPR) agonist potency, S1P1; settings: recombinant CHO-K1 cells expressing human S1PR1, aequorin, Gq/i5; Calcium 5 FLIPR; read-out: S1P1 EC50
T2 construct: host or cells: CHO-K1
Experimental: as §1, §2, §3, §4

human S1PR4 = target: T3, human S1PR4 (Homo sapiens, UniProt O95977); test: Intracellular Ca2+ release (FLIPR) agonist potency, S1P4; settings: recombinant CHO-K1 cells expressing human S1PR4, aequorin, Gq/i5; Calcium 5 FLIPR; read-out: S1P4 EC50
T3 construct: host or cells: CHO-K1
T3 sequence (O95977 1-384): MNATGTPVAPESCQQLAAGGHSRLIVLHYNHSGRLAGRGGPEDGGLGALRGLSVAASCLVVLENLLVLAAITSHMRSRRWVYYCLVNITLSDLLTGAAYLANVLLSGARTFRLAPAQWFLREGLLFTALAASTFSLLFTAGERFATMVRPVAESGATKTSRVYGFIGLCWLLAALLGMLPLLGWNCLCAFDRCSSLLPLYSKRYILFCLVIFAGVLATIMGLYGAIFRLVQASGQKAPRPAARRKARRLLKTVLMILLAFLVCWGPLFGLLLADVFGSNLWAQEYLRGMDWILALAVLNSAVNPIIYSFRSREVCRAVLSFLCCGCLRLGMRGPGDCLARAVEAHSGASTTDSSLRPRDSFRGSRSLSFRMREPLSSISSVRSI
Experimental: as §1, §2, §3, §4

T1 sequence (Q9H228 whole entry): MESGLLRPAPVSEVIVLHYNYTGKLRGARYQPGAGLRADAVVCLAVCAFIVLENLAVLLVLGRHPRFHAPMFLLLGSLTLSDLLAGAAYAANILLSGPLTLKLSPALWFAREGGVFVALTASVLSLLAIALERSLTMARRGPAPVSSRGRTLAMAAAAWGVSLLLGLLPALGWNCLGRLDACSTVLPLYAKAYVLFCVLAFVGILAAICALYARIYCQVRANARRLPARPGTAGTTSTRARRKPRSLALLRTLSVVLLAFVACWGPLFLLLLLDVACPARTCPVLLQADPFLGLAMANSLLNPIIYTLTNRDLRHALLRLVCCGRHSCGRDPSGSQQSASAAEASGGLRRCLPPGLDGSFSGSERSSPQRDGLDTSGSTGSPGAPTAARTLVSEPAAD
T2 sequence (P21453 whole entry): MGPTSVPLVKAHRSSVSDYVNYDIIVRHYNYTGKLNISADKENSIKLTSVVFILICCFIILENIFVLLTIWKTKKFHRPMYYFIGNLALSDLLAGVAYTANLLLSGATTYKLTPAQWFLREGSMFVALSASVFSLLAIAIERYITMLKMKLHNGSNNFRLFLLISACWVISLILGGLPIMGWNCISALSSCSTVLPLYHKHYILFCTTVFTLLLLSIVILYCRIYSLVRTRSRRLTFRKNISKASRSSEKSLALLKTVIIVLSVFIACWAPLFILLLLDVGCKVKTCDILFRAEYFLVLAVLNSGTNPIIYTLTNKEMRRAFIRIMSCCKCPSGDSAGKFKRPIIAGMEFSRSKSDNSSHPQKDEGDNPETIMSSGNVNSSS

`Cc1cccc(COc2ccc3c(c2)OCC(N2CC(C(=O)O)C2)C3)c1F` (stereo not drawn) [Compound 105, 1-[7-[(2-fluoro-3-methyl-phenyl)methoxy]chroman-3-yl]azetidine-3-carboxylic acid] was tested, and the EC50 (human S1PR5) was 1000 to 10000 nM, the EC50 (human S1PR1) was > 1000 nM and the EC50 (human S1PR4) was > 1000 nM.
For `O=C(O)C1CN(C2COc3cc(OCc4ccc(C(F)(F)F)cc4F)ccc3C2)C1` (stereo not drawn) [Compound 106, 1-[7-[[2-fluoro-4-(trifluoromethyl)phenyl]methoxy]chroman-3-yl]azetidine-3-carboxylic acid], the EC50 (human S1PR5) was 1000 to 10000 nM, the EC50 (human S1PR1) was > 1000 nM and the EC50 (human S1PR4) was > 1000 nM.
`CC(Oc1ccc2c(c1)OCC(N1CC(C(=O)O)C1)C2)c1ccccc1F` (stereo not drawn) [Compound 107, 1-[7-[1-(2-fluorophenyl)ethoxy]chroman-3-yl]azetidine-3-carboxylic acid] was tested, and the EC50 (human S1PR5) was 1000 to 10000 nM, the EC50 (human S1PR1) was > 1000 nM and the EC50 (human S1PR4) was > 1000 nM.
For `O=C(O)C1CN(C2COc3cc(OCc4ccc5cc(F)ccc5n4)ccc3C2)C1` (stereo not drawn) [Compound 108, 1-[7-[(6-fluoro-2-quinolyl)methoxy]chroman-3-yl]azetidine-3-carboxylic acid], the EC50 (human S1PR5) was 1000 to 10000 nM, the EC50 (human S1PR1) was > 1000 nM and the EC50 (human S1PR4) was > 1000 nM.
`O=C(O)C1CN(C2COc3cc(OCC4CCCCC4)ccc3C2)C1` (stereo not drawn) [Compound 109, 1-[7-(cyclohexylmethoxy)chroman-3-yl]azetidine-3-carboxylic acid] was tested, and the EC50 (human S1PR5) was 100 to 1000 nM, the EC50 (human S1PR1) was > 1000 nM and the EC50 (human S1PR4) was > 1000 nM.
`O=C(O)C1CCN(C2COc3cc(OCc4c(Cl)cccc4Cl)ccc3C2)CC1` (stereo not drawn) [Compound 110, 1-[7-[(2,6-dichlorophenyl)methoxy]chroman-3-yl]piperidine-4-carboxylic acid; Salt with 2,2,2-trifluoroacetic acid] was tested, and the EC50 (human S1PR5) was 10 to 100 nM, the EC50 (human S1PR1) was > 1000 nM and the EC50 (human S1PR4) was < 1000 nM.
`CCc1cccc(Cl)c1COc1ccc2c(c1)OCC(N1CCC(C(=O)O)CC1)C2` (stereo not drawn) [Compound 111, 1-[7-[(2-chloro-6-ethyl-phenyl)methoxy]chroman-3-yl]piperidine-4-carboxylic acid; Salt with 2,2,2-trifluoroacetic acid] was tested, and the EC50 (human S1PR5) was < 10 nM, the EC50 (human S1PR1) was < 1000 nM and the EC50 (human S1PR4) was < 1000 nM.
With `O=C(O)C1CCN(C2COc3cc(OCc4ccccc4)ccc3C2)CC1` (stereo not drawn) [Compound 112, 1-(7-benzyloxychroman-3-yl)piperidine-4-carboxylic acid] the EC50 (human S1PR5) was 1000 to 10000 nM, the EC50 (human S1PR1) was > 1000 nM and the EC50 (human S1PR4) was < 1000 nM.
In the case of `O=C(O)CNC1COc2cc(OCC3CCCCC3)ccc2C1` (stereo not drawn) [Compound 113, 2-[[7-(cyclohexylmethoxy)chroman-3-yl]amino]acetic acid], the EC50 (human S1PR5) is reported as 100 to 1000 nM, the EC50 (human S1PR1) is reported as > 1000 nM and the EC50 (human S1PR4) is reported as > 1000 nM.
For `O=C(O)CNC1COc2cc(OCCc3c(Cl)cccc3Cl)ccc2C1` (stereo not drawn) [Compound 114, 2-[[7-[2-(2,6-dichlorophenyl)ethoxy]chroman-3-yl]amino]acetic acid], the EC50 (human S1PR5) was 1000 to 10000 nM, the EC50 (human S1PR1) was > 1000 nM and the EC50 (human S1PR4) was > 1000 nM.
`CCc1cccc(Cl)c1COc1ccc2c(c1)OCC(NC1(CC(=O)O)CCCC1)C2` (stereo not drawn) [Compound 115, 2-(1-((7-((2-chloro-6-ethylbenzyl)oxy)chroman-3-yl)amino)cyclopentyl) acetic acid] was tested, and the EC50 (human S1PR5) was < 10 nM, the EC50 (human S1PR1) was > 1000 nM and the EC50 (human S1PR4) was < 1000 nM.
With `CCc1cccc(Cl)c1COc1ccc2c(c1)OCC(NC1(CC(=O)O)CCC1)C2` (stereo not drawn) [Compound 116, 2-(1-((7-((2-chloro-6-ethylbenzyl)oxy)chroman-3-yl)amino)cyclobutyl)acetic acid] the EC50 (human S1PR5) was < 10 nM, the EC50 (human S1PR1) was > 1000 nM and the EC50 (human S1PR4) was < 1000 nM.
`CCc1cccc(F)c1COc1ccc2c(c1)OCC(NC1(CC(=O)O)CCCC1)C2` (stereo not drawn) [Compound 117, 2-(1-((7-((2-ethyl-6-fluorobenzyl)oxy)chroman-3-yl)amino)cyclopentyl) acetic acid] was tested, and the EC50 (human S1PR5) was < 10 nM, the EC50 (human S1PR1) was > 1000 nM and the EC50 (human S1PR4) was < 1000 nM.
In the case of `CCc1cccc(F)c1COc1ccc2c(c1)OCC(NC1(CC(=O)O)CCC1)C2` (stereo not drawn) [Compound 118, 2-(1-((7-((2-ethyl-6-fluorobenzyl)oxy)chroman-3-yl)amino)cyclobutyl)acetic acid], the EC50 (human S1PR5) is reported as < 10 nM, the EC50 (human S1PR1) is reported as > 1000 nM and the EC50 (human S1PR4) is reported as < 1000 nM.
In the case of `O=C(O)C1(NC2COc3cc(OCc4c(Cl)cccc4Cl)ccc3C2)CCC1` (stereo not drawn) [Compound 119, 1-((7-((2,6-dichlorobenzyl)oxy)chroman-3-yl)amino)cyclobutane-1-carboxylic acid], the EC50 (human S1PR5) is reported as 1000 to 10000 nM, the EC50 (human S1PR1) is reported as > 1000 nM and the EC50 (human S1PR4) is reported as > 1000 nM.
In the case of `CCc1cccc(Cl)c1COc1ccc2c(c1)OCC(NC1(C(=O)O)CCC1)C2` (stereo not drawn) [Compound 120, 1-((7-((2-chloro-6-ethylbenzyl)oxy)chroman-3-yl)amino)cyclobutane-1-carboxylic acid], the EC50 (human S1PR5) is reported as 10 to 100 nM, the EC50 (human S1PR1) is reported as < 1000 nM and the EC50 (human S1PR4) is reported as < 1000 nM.
For `CCc1cccc(Cl)c1COc1ccc2c(c1)OCC(NC13CC(C(=O)O)(C1)C3)C2` (stereo not drawn) [Compound 121, 3-((7-((2-chloro-6-ethylbenzyl)oxy)chroman-3-yl)amino)bicyclo[1.1.1]pentane-1-carboxylic acid], the EC50 (human S1PR5) was 100 to 1000 nM, the EC50 (human S1PR1) was > 1000 nM and the EC50 (human S1PR4) was < 1000 nM.
For `CCc1cccc(F)c1COc1ccc2c(c1)OCC(NC13CC(C(=O)O)(C1)C3)C2` (stereo not drawn) [Compound 122, 3-((7-((2-ethyl-6-fluorobenzyl)oxy)chroman-3-yl)amino)bicyclo[1.1.1]pentane-1-carboxylic acid], the EC50 (human S1PR5) was 10 to 100 nM, the EC50 (human S1PR1) was > 1000 nM and the EC50 (human S1PR4) was < 1000 nM.
With `CCc1cccc(Cl)c1COc1ccc2c(c1)OCC(N(C)CC(=O)O)C2` (stereo not drawn) [Compound 124, N-(7-((2-chloro-6-ethylbenzyl)oxy)chroman-3-yl)-N-methylglycine] the EC50 (human S1PR5) was < 10 nM, the EC50 (human S1PR1) was > 1000 nM and the EC50 (human S1PR4) was < 1000 nM.
For `CCc1cccc(Cl)c1COc1ccc2c(c1)OCC(N1CCC(CC(=O)O)C1)C2` (stereo not drawn) [Compound 125, 2-(1-(7-((2-chloro-6-ethylbenzyl)oxy)chroman-3-yl)pyrrolidin-3-yl)acetic acid], the EC50 (human S1PR5) was < 10 nM, the EC50 (human S1PR1) was > 1000 nM and the EC50 (human S1PR4) was < 1000 nM.
With `CCc1cccc(F)c1COc1ccc2c(c1)OCC(NCC(=O)O)C2` (stereo not drawn) [Compound 126, (7-((2-ethyl-6-fluorobenzyl)oxy)chroman-3-yl)glycine] the EC50 (human S1PR5) was < 10 nM, the EC50 (human S1PR1) was > 1000 nM and the EC50 (human S1PR4) was < 1000 nM.
With `CCc1cccc(F)c1COc1ccc2c(c1)OCC(N1CCC(C(=O)O)C1)C2` (stereo not drawn) [Compound 127, 1-(7-((2-ethyl-6-fluorobenzyl)oxy)chroman-3-yl)pyrrolidine-3-carboxylic acid] the EC50 (human S1PR5) was < 10 nM, the EC50 (human S1PR1) was > 1000 nM and the EC50 (human S1PR4) was < 1000 nM.
`CCc1cccc(Cl)c1COc1ccc2c(c1)OCC(N1CCC(C(=O)O)C1)C2` (stereo not drawn) [Compound 128, 1-(7-((2-chloro-6-ethylbenzyl)oxy)chroman-3-yl)pyrrolidine-3-carboxylic acid] was tested, and the EC50 (human S1PR5) was < 10 nM, the EC50 (human S1PR1) was > 1000 nM and the EC50 (human S1PR4) was < 1000 nM.
For `CCc1cccc(F)c1COc1ccc2c(c1)OCC(NC1(CC(=O)O)CC1)C2` (stereo not drawn) [Compound 129, 2-(1-((7-((2-ethyl-6-fluorobenzyl)oxy)chroman-3-yl)amino)cyclopropyl) acetic acid], the EC50 (human S1PR5) was < 10 nM, the EC50 (human S1PR1) was > 1000 nM and the EC50 (human S1PR4) was > 1000 nM.
`CCc1cccc(F)c1COc1ccc2c(c1)OCC(N1CCC(CC(=O)O)C1)C2` (stereo not drawn) [Compound 130, 2-(1-(7-((2-ethyl-6-fluorobenzyl)oxy)chroman-3-yl)pyrrolidin-3-yl)acetic acid] was tested, and the EC50 (human S1PR5) was < 10 nM, the EC50 (human S1PR1) was > 1000 nM and the EC50 (human S1PR4) was < 1000 nM.
`O=C(O)CNC1COc2cc(-c3ccc(OCc4cccc(F)c4F)cc3)ccc2C1` (stereo not drawn) [Compound 131, (7-(4-((2,3-difluorobenzyl)oxy)phenyl)chroman-3-yl)glycine] was tested, and the EC50 (human S1PR5) was < 10 nM, the EC50 (human S1PR1) was < 1000 nM and the EC50 (human S1PR4) was > 1000 nM.
In the case of `O=C(O)CNC1COc2cc(OCc3ccc(OCc4cccc(Cl)c4)cc3)ccc2C1` (stereo not drawn) [Compound 132, (7-((4-((3-chlorobenzyl)oxy)benzyl)oxy)chroman-3-yl)glycine], the EC50 (human S1PR5) is reported as < 10 nM, the EC50 (human S1PR1) is reported as > 1000 nM and the EC50 (human S1PR4) is reported as > 1000 nM.
`CN(CC(=O)O)C1COc2cc(OCc3ccc(OCc4cccc(F)c4F)cc3)ccc2C1` (stereo not drawn) [Compound 133, N-(7-((4-((2,3-difluorobenzyl)oxy)benzyl)oxy)chroman-3-yl)-N-methylglycine] was tested, and the EC50 (human S1PR5) was < 10 nM, the EC50 (human S1PR1) was < 1000 nM and the EC50 (human S1PR4) was > 1000 nM.
For `CN(CC(=O)O)C1COc2cc(OCc3ccc(OCc4cccc(Cl)c4)cc3)ccc2C1` (stereo not drawn) [Compound 134, N-(7-((4-((3-chlorobenzyl)oxy)benzyl)oxy)chroman-3-yl)-N-methylglycine], the EC50 (human S1PR5) was < 10 nM, the EC50 (human S1PR1) was > 1000 nM and the EC50 (human S1PR4) was > 1000 nM.
In the case of `CN(CC(=O)O)C1COc2cc(OCc3ccc(OCc4ccc(Cl)cc4)cc3)ccc2C1` (stereo not drawn) [Compound 135, N-(7-((4-((4-chlorobenzyl)oxy)benzyl)oxy)chroman-3-yl)-N-methylglycine], the EC50 (human S1PR5) is reported as 10 to 100 nM, the EC50 (human S1PR1) is reported as > 1000 nM and the EC50 (human S1PR4) is reported as > 1000 nM.
